US9896476B1, “Glycyrrhetic acid derivatives” (KING SAUD UNIVERSITY, priority 2017, dated 2018)
Values joined by “and” are separate entries in the source; they are usually repeats but may differ in a detail not shown here. Identical values can stand only once. Values belong to the compound of their own block, whether it stands above or below them.

Assays:
[1] = system: carrageenan-induced rat paw edema; test: Carrageenan-induced rat paw edema; format: in vivo; details: for % Protection / Increase in paw edema (ml) ± SEM: 10 μmol/kg s.c. 1 h prior to carrageenan; for % Protection: 4 h, relative to DMSO control; for Increase in paw edema (ml) ± SEM: increase between 0 h and 4 h; for Activity relative to indomethacin: 10 μmol/kg s.c., indomethacin = 100
Procedure: Male albino rats weighing 120-150 g were used in these experiments. The rats were kept in an animal house under standard conditions of light and temperature with free access to food and water. The animals were randomly divided into groups of six rats each for each experimental and control group. The paw edema was induced by subplantar injection of […] of 2% carrageenan solution in saline (0.9%). […] A control group was injected with DMSO only. The volume of paw edema (ml) was determined by means of a plethysmometer immediately after carrageenan injection and 4 h later. The increase in paw volume between 0 h and 4 h after carrageenan injection was measured. The percentage protection against inflammation was calculated according to the following formula: % Protection=100%×(Vc−Vd)/Vc where Vc is the 4 h increase in paw volume in the control animals (control) and Vd is the 4 h increase in paw volume in the test animals. Data are expressed as the mean±SEM. Significant difference between the control and test groups was determined using Student's t-test and P values. The difference in results was considered significant when P<0.001.

[2] = target: T1, H+/K+-ATPase (Sus scrofa, UniProt P19156); test: H+/K+-ATPase (proton pump) inhibition in membrane vesicles of stomach mucosa; format: biochemical; details: pig gastric membrane vesicles, 37° C.; pre-incubation pH (6.0 or 7.4) not given
T1 construct: Membrane vesicles containing H^+/K^+-ATPase were prepared from pig stomachs; from tissue; host or cells: pig gastric mucosa membrane vesicles
Procedure: Membrane vesicles containing H^+/K^+-ATPase were prepared from pig stomachs obtained from a local slaughter house. Pigs were fasted overnight before slaughter. The gastric mucosa of four stomachs was rinsed with cold saturated NaCl solution for 3-5 min. The superficial cells, cell debris plus the mucus were wiped off with the edge of a plastic ruler and paper towels. The mucosa was scraped off. About 100 g of scrapings were divided into portions of 10 g and homogenized in 0.25 M sucrose with seven strokes in a Potter-Elvehjem Teflon-glass homogenizer. […] The pellet was discarded. The supernatant was centrifuged at 75,000 g for 1 h. The resulting microsomal pellet was homogenized in 30 ml 0.25 M sucrose. Aliquots of 15 ml were transferred to 100 ml centrifuge tubes and layered on top of step gradients, from the bottom comprising 25 ml 37% sucrose (w/v) and 45 ml 7.5% Ficoll (w/v) in 0.25 M sucrose. The tubes were centrifuged at 75,000 g for 1 h in a 6×100 ml ME angle rotor at 4° C. The gradient was then fractionated by pumping Fluoroinert 70 through narrow tubing in a fractionating cap down to the bottom of the tube. Fractions are collected from top through a center hole in the fractionating cap. The yield of vesicles in a typical preparation is about 50-75 mg protein. In order to maintain a stable vesicular structure for a long period of time, the vesicles were frozen at −70° C. under nitrogen, and could then be kept for several months without decrease of H^+/K^+-ATPase activity. The ATPase activity was measured at 37° C. as the release of inorganic phosphate (Pi) from ATP. […] Then, the medium of pH 6.0 is adjusted with HEPES/Tris buffer to pH 7.4. The enzyme reaction is started by addition of nigericin and Tris/ATP. The total reaction volume is 1 ml, containing 20 μg vesicular protein, 4 mM MgCl2, 10 mM KCl, 20 μM nigericin, 2 mM Tris-ATP, 10 mM HEPES and additionally 2 mM Pipes for the pre-incubation medium at pH 6.0. After […] at 37° C., the reaction is stopped by the addition of […] of 50% trichloroacetic acid. The denatured protein was spun down and the Pi content is determined according to Le Bel et al. (1978) and based on the reduction of a phosphomolybdate complex by p-methyl-aminophenol sulfate in a copper acetate buffer or according to Carter and Karl (1982) based on the reaction of phosphomolybdate with the basic dye malachite green. […] IC50 values of the test compound at different pH values were compared with IC50 values of the standard. Statistical differences (P<0.05) were calculated by Student's t-test.

[3] = target: T2, Human COX-2 (Homo sapiens, UniProt P35354); test: Human COX-2 enzymatic assay; format: biochemical; details: for IC50: 5 min pre-incubation, 45 min incubation with [14C]-arachidonic acid at 24° C.; for Approximate selectivity ratio COX-1/COX-2: ratio of COX-1 IC50 to COX-2 IC50
T2 sequence (P35354 18-604): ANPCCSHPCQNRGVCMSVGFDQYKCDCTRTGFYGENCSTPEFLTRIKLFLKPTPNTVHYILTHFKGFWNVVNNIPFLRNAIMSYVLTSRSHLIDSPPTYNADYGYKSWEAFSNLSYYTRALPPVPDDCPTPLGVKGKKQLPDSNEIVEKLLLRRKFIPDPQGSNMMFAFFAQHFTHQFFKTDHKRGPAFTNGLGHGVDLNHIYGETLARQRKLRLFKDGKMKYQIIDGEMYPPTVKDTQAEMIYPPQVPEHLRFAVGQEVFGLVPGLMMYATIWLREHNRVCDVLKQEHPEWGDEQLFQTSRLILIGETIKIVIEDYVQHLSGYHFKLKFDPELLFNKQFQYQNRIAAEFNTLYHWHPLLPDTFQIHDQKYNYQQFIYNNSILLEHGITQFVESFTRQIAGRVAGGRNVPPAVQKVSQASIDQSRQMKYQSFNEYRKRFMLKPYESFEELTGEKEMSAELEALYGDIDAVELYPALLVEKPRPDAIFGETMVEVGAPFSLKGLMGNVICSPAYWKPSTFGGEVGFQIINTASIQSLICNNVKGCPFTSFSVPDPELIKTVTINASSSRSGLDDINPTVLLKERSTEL
Procedure: (§1) Human COX-1 and COX-2 activities were determined as described by Wakitani et al. 0.2 ml of 100 mmol Tris HCl buffer (pH 8) containing hematin (2 mmol) and tryptophan (5 mmol) as cofactors. The reaction mixture was pre-incubated with each test compound individually for 5 min at 24° C. [14C]-arachidonic acid (100.00 dpm, 30 mmol) was added to the mixture and then incubated for 2 min (for COX-1) or 45 min (for COX-2) at 24° C. The reaction was stopped by the addition of 400 μl of a solution composed of Et2O/MeOH/1 M citric acid (30:4:1, v/v/v). After centrifugation of the mixture at 1700×/g for 5 min at 4° C., 50 μl of the upper phase was applied to a thin layer chromatography plate. Thin layer chromatography was performed at 4° C. with solvent system of Et2O/MeOH/AcOH (90:2:0.1, v/v/v). Enzyme activity was calculated from the percent conversion of arachidonic acid to PGH2 and its de-composition products, using radiometric photographic system.

[4] = system: pyloric ligation ulcer; test: Pyloric ligation ulcer model (antiulcer activity); format: in vivo, rat; details: rats, oral 30 min prior to pyloric ligation, 4 h, compounds 100 mg/kg, omeprazole 40 mg/kg; for Free acid / Total acid: gastric contents
Procedure: Pyloric ligation ulcer models were used to test each of compounds (2)-(4) for antiulcer activity. Male rats (140 and 175 g) were selected for pyloric ligation ulcer model experiments and divided into eleven groups consisting of six animals each. The rats were fasted overnight. One group received normal saline 2 ml/kg (negative control), the second group received omeprazole 40 mg/kg (positive control) and the other groups received each of the compounds (2)-(4) (100 mg/kg) by oral route 30 min prior to pyloric ligation. Animals were sacrificed 4 h later and their stomachs were opened to collect the gastric contents. The gastric contents were centrifuged at 1000 rpm for 10 min. One ml of the supernatant liquid was pipetted out and diluted to a total volume of 10 ml with distilled water. The solution was titrated against 0.01 N sodium hydroxide solution using Topfer's reagent to indicate the end point when the solution turned […]. The volume of NaOH consumed was taken as corresponding to the free acidity. Titration was further continued until the solution regained pink color. The volume of sodium hydroxide solution required to achieve the pink color was noted and total acidity calculated. After opening the stomach, the ulcer index was calculated.
The results are expressed as mean±SEM. The difference between groups was determined using the one way analysis of variance (ANOVA) followed by Dunnett's test. P<0.05 was considered significant.

[5] = system: cotton pellet-induced granuloma; test: Cotton pellet-induced granuloma bioassay; format: in vivo, rat; details: for ED50: rat cotton pellet granuloma; for The anti-inflammatory activity ED50: rat, compound-impregnated cotton pellets implanted s.c., 7 days, dose response 4, 7, 10 and 15 μmol
Procedure: An animal model cotton pellet-induced granuloma bioassay was used to determine ED50 for the compounds (2)-(4). Adult male Sprague Dawley rats (120-140 g), were used in the cotton pellet-induced granuloma bioassays. The rats were acclimated one week prior to use and allowed unlimited access to standard rat chow and water. Prior to the start of the experiment, the animals were randomly divided into groups of six rats each. Cotton pellet (35±1 mg) cut from dental rolls were impregnated with 0.2 ml (containing 0.01 mmol) of a solution of each of compounds (2)-(4) in chloroform, and the solvent was allowed to evaporate. Each cotton pellet was subsequently injected with 0.2 ml of an aqueous solution of antibiotics (1 mg penicillin G and 1.3 mg dihydrostreptomycin/ml). Two pellets were implanted subcutaneously, one in each axilla of the rat, under mild general anesthesia. One group of animals received the standard reference pharmaceutical indomethacin and the antibiotics at the same level. Pellets containing only the antibiotics were similarly implanted in control rats. Seven days later, the animals were sacrificed and the two cotton pellets, with adhering granulomas, were removed, dried for 48 h at 60° C. and weighed. The increment in dry weight (difference between the initial and final weight) was taken as a measure of the dry weight of granuloma±SEM. The dry weight of granuloma and the percentage reduction in dry weight of granuloma relative to the respective control value were calculated for all rats. The ED50 values were determined through dose response curves using doses of 4, 7, 10 and 15 μmol for each compound.

[6] = target: Human COX-1 (Homo sapiens, UniProt P23219); test: Human COX-1 enzymatic assay; format: biochemical; details: 5 min pre-incubation, 2 min incubation with [14C]-arachidonic acid at 24° C.
Procedure: as §1

[7] = Acute toxicity in mice; details: mouse, in vivo; male mice; route for the LD50 not stated (oral and intraperitoneal tests described)
Procedure: […]. The animals were divided into groups of six mice each. The compounds were given orally, suspended in 1% gum acacia, in doses of 1, 10, 100, 200, 250, 300 mg/kg.
The mortality percentage in each group was recorded after 24 h.
Additionally, the test compounds were investigated for their parenteral acute toxicity in groups of six mice each as reported earlier. The compounds, or their vehicle propylene glycol (control), were given by intraperitoneal injection in doses of 10, 25, 50, 75, 100 mg/kg. The percentage survival was followed up to seven days.

T1 sequence (P19156 2-1034 limits assumed): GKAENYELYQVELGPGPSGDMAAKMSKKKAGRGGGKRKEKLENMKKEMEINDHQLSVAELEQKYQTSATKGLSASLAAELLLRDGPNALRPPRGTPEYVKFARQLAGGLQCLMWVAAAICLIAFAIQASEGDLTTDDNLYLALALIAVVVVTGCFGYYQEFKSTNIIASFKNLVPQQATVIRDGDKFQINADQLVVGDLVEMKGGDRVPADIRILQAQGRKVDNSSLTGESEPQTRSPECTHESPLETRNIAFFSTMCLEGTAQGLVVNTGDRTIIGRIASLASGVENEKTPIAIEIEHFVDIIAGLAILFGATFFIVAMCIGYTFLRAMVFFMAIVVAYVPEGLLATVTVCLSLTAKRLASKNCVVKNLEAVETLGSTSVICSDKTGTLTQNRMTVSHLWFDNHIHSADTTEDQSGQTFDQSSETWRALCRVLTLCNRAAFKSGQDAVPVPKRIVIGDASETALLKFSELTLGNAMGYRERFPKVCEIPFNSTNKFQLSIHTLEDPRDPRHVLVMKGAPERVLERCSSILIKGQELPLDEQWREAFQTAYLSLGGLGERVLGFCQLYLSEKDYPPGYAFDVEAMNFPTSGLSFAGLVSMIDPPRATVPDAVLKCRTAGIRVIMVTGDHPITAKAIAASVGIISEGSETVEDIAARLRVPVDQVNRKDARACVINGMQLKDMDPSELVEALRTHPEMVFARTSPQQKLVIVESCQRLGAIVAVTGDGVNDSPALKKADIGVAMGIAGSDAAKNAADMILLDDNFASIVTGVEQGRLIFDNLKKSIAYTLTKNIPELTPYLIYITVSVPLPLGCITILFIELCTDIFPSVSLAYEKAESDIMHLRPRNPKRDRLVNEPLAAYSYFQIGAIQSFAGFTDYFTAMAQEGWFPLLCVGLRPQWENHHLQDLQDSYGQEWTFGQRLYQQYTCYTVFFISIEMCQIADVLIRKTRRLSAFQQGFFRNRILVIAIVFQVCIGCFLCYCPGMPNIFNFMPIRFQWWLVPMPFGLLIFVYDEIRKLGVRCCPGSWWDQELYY
T1 sequence (P18434 whole entry partner): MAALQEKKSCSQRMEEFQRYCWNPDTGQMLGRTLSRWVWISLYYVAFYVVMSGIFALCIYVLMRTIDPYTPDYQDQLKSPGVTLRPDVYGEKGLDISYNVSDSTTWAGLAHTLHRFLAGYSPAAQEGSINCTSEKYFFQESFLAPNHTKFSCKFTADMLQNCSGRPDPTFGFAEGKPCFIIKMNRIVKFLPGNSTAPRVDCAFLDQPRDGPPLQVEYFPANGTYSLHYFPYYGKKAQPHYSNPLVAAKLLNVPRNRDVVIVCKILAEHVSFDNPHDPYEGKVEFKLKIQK
Human COX-1, sequence (P23219 24-599): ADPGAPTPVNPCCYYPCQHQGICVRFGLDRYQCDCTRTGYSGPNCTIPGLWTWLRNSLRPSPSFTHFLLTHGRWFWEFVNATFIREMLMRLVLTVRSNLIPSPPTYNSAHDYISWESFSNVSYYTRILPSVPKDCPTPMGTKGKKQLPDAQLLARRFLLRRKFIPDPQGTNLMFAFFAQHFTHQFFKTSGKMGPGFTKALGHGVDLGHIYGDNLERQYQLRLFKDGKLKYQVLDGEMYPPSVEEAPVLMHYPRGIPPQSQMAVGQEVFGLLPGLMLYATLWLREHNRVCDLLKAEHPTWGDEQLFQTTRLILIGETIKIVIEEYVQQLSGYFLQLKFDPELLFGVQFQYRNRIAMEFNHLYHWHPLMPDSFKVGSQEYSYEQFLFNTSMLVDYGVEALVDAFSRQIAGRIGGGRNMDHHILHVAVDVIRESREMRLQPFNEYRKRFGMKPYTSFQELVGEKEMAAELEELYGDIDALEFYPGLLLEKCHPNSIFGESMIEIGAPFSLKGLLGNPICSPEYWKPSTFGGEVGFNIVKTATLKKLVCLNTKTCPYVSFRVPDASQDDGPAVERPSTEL

SMILES: Cn1nc2c(c1-c1ccc(F)cc1)CC1(C)C(CCC3(C)C1C(=O)C=C1C4CC5(C)CC(OC5=O)C4(C)CCC13C)C2(C)C (stereo not drawn) [Compound 4, 2-(4-fluorobenzylidene)-3,11-dioxo-18β-olean[3,2-c]-1′H-5′-(4-fluorophenyl)-N-methylpyrazoline-12-en-30-oic acid (30→22β) lactone]
% Protection [1]: 98.77%
Increase in paw edema (ml) ± SEM [1]: 0.0121 ± 0.0002 mL
Activity relative to indomethacin [1]: 132.58
IC50 [2]: 9.21 ± 0.0076 µM
IC50 [3]: 0.087 µM
Approximate selectivity ratio COX-1/COX-2 [3]: 3965.52
Free acid [4]: 0.06 mEq/L
Total acid [4]: 0.06 mEq/L
Ulcer Index [4]: 1.04
ED50 [5]: 1.35 µmol
The anti-inflammatory activity ED50 [5]: 1.35 ± 0.0034 µmol
IC50 [6]: 345 µM
LD50 [7]: 3460 mg/kg

IC50 [2]: 66.1 ± 1.11 µM
SMILES: COc1ccc2[nH]c([S+]([O-])Cc3ncc(C)c(OC)c3C)nc2c1 (stereo not shown) [Omeprazole, reference compound]
Free acid [4]: 0.43 mEq/L
Total acid [4]: 0.33 mEq/L
Ulcer Index [4]: 3.31

SMILES: CC1(C(=O)O)CCC2(C)CCC3(C)C(=CC(=O)C4C5(C)C/C(=C\c6ccc(F)cc6)C(=O)C(C)(C)C5CCC43C)C2C1 (stereo not drawn) [Compound 2, 2-(4-fluorobenzylidene)-3,11-dioxo-18β-olean-12-en-30-oic acid]
% Protection [1]: 98.40%
Increase in paw edema (ml) ± SEM [1]: 0.0157 ± 0.0004 mL
Activity relative to indomethacin [1]: 132.09
IC50 [2]: 11.46 ± 0.009 µM
IC50 [3]: 0.109 µM
Approximate selectivity ratio COX-1/COX-2 [3]: 2733.94
Free acid [4]: 0.09 mEq/L
Total acid [4]: 0.09 mEq/L
Ulcer Index [4]: 1.16
ED50 [5]: 1.52 µmol
The anti-inflammatory activity ED50 [5]: 1.52 ± 0.0019 µmol
IC50 [6]: 298 µM
LD50 [7]: 3100 mg/kg

SMILES: Cn1nc2c(c1-c1ccc(F)cc1)CC1(C)C(CCC3(C)C1C(=O)C=C1C4CC(C)(C(=O)O)CCC4(C)CCC13C)C2(C)C (stereo not drawn) [Compound 3, 2-(4-fluorobenzylidene)-3,11-dioxo-18β-olean[3,2-c]-1′H-5′-(4-fluorophenyl)-N-methylpyrazoline-12-en-30-oic acid]
% Protection [1]: 98.49%
Increase in paw edema (ml) ± SEM [1]: 0.0148 ± 0.0003 mL
Activity relative to indomethacin [1]: 132.21
IC50 [2]: 10.03 ± 0.0072 µM
IC50 [3]: 0.091 µM
Approximate selectivity ratio COX-1/COX-2 [3]: 3438.57 and 3428.57
Free acid [4]: 0.08 mEq/L
Total acid [4]: 0.08 mEq/L
Ulcer Index [4]: 1.12
ED50 [5]: 1.47 µmol
The anti-inflammatory activity ED50 [5]: 1.47 ± 0.0021 µmol
IC50 [6]: 312 µM
LD50 [7]: 3360 mg/kg

SMILES: COc1ccc2c(c1)c(CC(=O)O)c(C)n2C(=O)c1ccc(Cl)cc1 [Indomethacin, reference compound]
Increase in paw edema (ml) ± SEM [1]: 0.25 ± 0.0005 mL
The anti-inflammatory activity ED50 [5]: 9.568 ± 0.098 µmol
The anti-inflammatory activity ED50 ([5]; listed as indomethacin): 9.568 µmol
